In brackets after ≈: the same amount, converted by molar mass. Activity calls are given as the source filed them. No cut-off for these calls is given here. *1 amine or outer side, *2 acyl side, *3 side chain or, on linkers, in order; H or OH if unused. Where a SMILES comes first, the peptide text is derived from it. Bridges are numbered along the chain shown (N, C = ends). [ ]: non-standard residue; d: D form. The star is where a group is joined. Phe(3R-OH) = O=C([C@@H](N[*:1])[C@H](O[*:3])c1ccccc1)[*:2]; NMeTrp(4-OMe) = CN[C@@H](Cc1c[nH]c2cccc(OC)c12)C(=O)O; NMeW = CN[C@@H](Cc1c[nH]c2ccccc12)C(=O)O; NMeaIle = CC[C@@H](C)[C@H](NC)C(=O)O; NMe2Val = CC(C)[C@@H](C(=O)*)N(C)C; NMeF = CN[C@@H](Cc1ccccc1)C(=O)O; NMeT = CN[C@H](C(=O)O)[C@@H](C)O; NMeL = CN[C@@H](CC(C)C)C(=O)O; NMeV = CN[C@H](C(=O)O)C(C)C; NMeA = CN[C@@H](C)C(=O)O
How the values were obtained:
[1] = system: Klebsiella pneumoniae; test: Antibacterial activity against Klebsiella pneumoniae ATCC 700603 assessed as bacterial growth inhibition incubated for 18 to 20 hrs by broth microdilution method; assay type: functional; settings: time 18-20 hrs
[2] = system: Mycobacterium marinum; test: Antimycobacterial activity against mid-exponential phase Mycobacterium marinum M strain incubated for 2 days by fluorescence assay; assay type: functional; settings: 48 h, time 2 day
[3] = system: Mycobacterium tuberculosis; test: Synergistic antimycobacterial activity against Mycobacterium tuberculosis mc2 6230 assessed as fractional inhibitory concentration incubated for 7 days in presence of ethambutol by checkerboard assay; assay type: functional; settings: time 7 day
[4] = system: Enterococcus faecium; test: Antibacterial activity against Enterococcus faecium ATCC 6569 assessed as bacterial growth inhibition incubated for 18 to 20 hrs by broth microdilution method; assay type: functional; settings: time 18-20 hrs
[5] = system: Mycobacterium tuberculosis; test: Synergistic antimycobacterial activity against Mycobacterium tuberculosis mc2 6230 assessed as fractional inhibitory concentration incubated for 7 days in presence of bedaquiline by checkerboard assay; assay type: functional; settings: time 7 day
[6] = system: Mycobacterium tuberculosis; test: Bactericidal activity against Mycobacterium tuberculosis mc2 6230 at 10 time MIC monitored for 28 days under hypoxic non-replicating culture condition by time kill assay; assay type: functional, organism-based; settings: time 28.0 day
[7] = system: Pseudomonas aeruginosa; test: Antibacterial activity against Pseudomonas aeruginosa ATCC 27853 assessed as bacterial growth inhibition incubated for 18 to 20 hrs by broth microdilution method; assay type: functional; settings: time 18-20 hrs
[8] = system: Mycobacterium marinum; test: Antimycobacterial activity against Mycobacterium marinum infected in zebrafish assessed as reduction in bacterial burden at 10 uM in presence of rifampicin after 6 days post infection; assay type: functional; parameters: scale not given: the % may be the effect or the level left; settings: time 6 day
[9] = system: Providencia alcalifaciens; test: Antibacterial activity against Providencia alcalifaciens ATCC 9886 assessed as bacterial growth inhibition incubated for 18 to 20 hrs by broth microdilution method; assay type: functional; settings: time 18-20 hrs
[10] = system: Vibrio cholerae; test: Antibacterial activity against Vibrio cholerae A1552 El Tor assessed as bacterial growth inhibition incubated for 18 to 20 hrs by broth microdilution method; assay type: functional; settings: time 18-20 hrs
[11] = system: Salmonella enterica; test: Antibacterial activity against Salmonella enterica ATCC 13311 assessed as bacterial growth inhibition incubated for 18 to 20 hrs by broth microdilution method; assay type: functional; settings: time 18-20 hrs
[12] = system: Escherichia coli; test: Antibacterial activity against Escherichia coli K-12 MG1655 assessed as bacterial growth inhibition incubated for 18 to 20 hrs by broth microdilution method; assay type: functional; settings: time 18-20 hrs
[13] = system: Enterococcus faecalis; test: Antibacterial activity against Enterococcus faecalis ATCC 29212 assessed as bacterial growth inhibition incubated for 18 to 20 hrs by broth microdilution method; assay type: functional; settings: time 18-20 hrs
[14] = system: Klebsiella aerogenes; test: Antibacterial activity against Klebsiella aerogenes ATCC 35029 assessed as bacterial growth inhibition incubated for 18 to 20 hrs by broth microdilution method; assay type: functional; settings: time 18-20 hrs
[15] = system: Streptococcus pneumoniae; test: Antibacterial activity against Streptococcus pneumoniae ATCC 49619 assessed as bacterial growth inhibition incubated for 18 to 20 hrs by broth microdilution method; assay type: functional; settings: time 18-20 hrs
[16] = system: Mycobacterium tuberculosis; test: Synergistic antimycobacterial activity against Mycobacterium tuberculosis mc2 6230 assessed as fractional inhibitory concentration incubated for 7 days in presence of rifampicin by checkerboard assay; assay type: functional; settings: time 7 day
[17] = system: Staphylococcus aureus; test: Antibacterial activity against methicillin-sensitive Staphylococcus aureus ATCC 29213 assessed as bacterial growth inhibition incubated for 18 to 20 hrs by broth microdilution method; assay type: functional; settings: time 18-20 hrs
[18] = system: Mycobacterium tuberculosis; test: Antimycobacterial activity against Mycobacterium tuberculosis mc2 6230 measured after 7 days; assay type: functional; settings: mc2 6230, 168 h, time 7 day
[19] = system: Mycobacterium tuberculosis; test: Antimycobacterial activity against Mycobacterium tuberculosis mc2 6230 measured after 7 days by Time kill assay; assay type: functional, organism-based; settings: time 7.0 day
[20] = system: Acinetobacter baumannii; test: Antibacterial activity against Acinetobacter baumannii ATCC 19606 assessed as bacterial growth inhibition incubated for 18 to 20 hrs by broth microdilution method; assay type: functional; settings: time 18-20 hrs
[21] = system: Mycolicibacterium smegmatis; test: Enhancement of hexameric Mycobacterium smegmatis ClpC1 ATPase activity assessed as fold increase at 100 uM incubated for 30 mins by ATP/NADH spectrophotometric analysis; settings: filed as activator
[22] = system: Listeria ivanovii; test: Antibacterial activity against Listeria ivanovii BAA-139 assessed as bacterial growth inhibition incubated for 18 to 20 hrs by broth microdilution method; assay type: functional; settings: time 18-20 hrs
[23] = system: Brucella anthropi; test: Antibacterial activity against Ochrobactrum anthropi ATCC 49687 assessed as bacterial growth inhibition incubated for 18 to 20 hrs by broth microdilution method; assay type: functional; settings: time 18-20 hrs
[24] = system: Mycobacterium tuberculosis; test: Synergistic antimycobacterial activity against Mycobacterium tuberculosis mc2 6230 assessed as fractional inhibitory concentration incubated for 7 days in presence of pyrazinamide by checkerboard assay; assay type: functional; settings: time 7 day
[25] = system: Mycobacterium tuberculosis; test: Synergistic antimycobacterial activity against Mycobacterium tuberculosis mc2 6230 assessed as fractional inhibitory concentration incubated for 7 days in presence of clofazimine by checkerboard assay; assay type: functional; settings: time 7 day
[26] = system: Mycobacterium marinum; test: Antimycobacterial activity against Mycobacterium marinum infected in zebrafish assessed as reduction in bacterial burden at 10 uM after 6 days post infection; assay type: functional; parameters: scale not given: the % may be the effect or the level left; settings: time 6 day
[27] = system: Bacillus subtilis; test: Antibacterial activity against Bacillus subtilis ATCC 6051 assessed as bacterial growth inhibition incubated for 18 to 20 hrs by broth microdilution method; assay type: functional; settings: time 18-20 hrs
[28] = system: Mycolicibacterium smegmatis; test: Enhancement of Mycobacterium smegmatis ClpC1 ATPase activity assessed as inhibition of ClpC1/ClpP1P2 complex-mediated beta-casein proteolysis incubated for 30 to 60 mins by in vitro degradation assay; settings: filed as activator, time 30-60 min
[29] = system: Shigella sonnei; test: Antibacterial activity against Shigella sonnei ATCC 25931 assessed as bacterial growth inhibition incubated for 18 to 20 hrs by broth microdilution method; assay type: functional; settings: time 18-20 hrs
[30] = system: Staphylococcus aureus; test: Antibacterial activity against methicillin-resistant Staphylococcus aureus BAA-44 assessed as bacterial growth inhibition incubated for 18 to 20 hrs by broth microdilution method; assay type: functional; settings: time 18-20 hrs
[31] = system: Staphylococcus epidermidis; test: Antibacterial activity against Staphylococcus epidermidis ATCC 14990 assessed as bacterial growth inhibition incubated for 18 to 20 hrs by broth microdilution method; assay type: functional; settings: time 18-20 hrs
[32] = system: Mycobacterium tuberculosis; test: Antibacterial activity against Mycobacterium tuberculosis mc2 6230 assessed as reduction in viable cells at 10 times MIC measured for 42 days in solid media by time kill assay; assay type: functional; settings: time 42 day
[33] = system: Mycobacterium tuberculosis; test: Synergistic antimycobacterial activity against Mycobacterium tuberculosis mc2 6230 assessed as fractional inhibitory concentration incubated for 7 days in presence of isoniazid by checkerboard assay; assay type: functional; settings: time 7 day
[34] = system: Yersinia pseudotuberculosis; test: Antibacterial activity against Yersinia pseudotuberculosis ATCC 6904 assessed as bacterial growth inhibition incubated for 18 to 20 hrs by broth microdilution method; assay type: functional; settings: time 18-20 hrs
[35] = system: Mycobacterium marinum; test: Antimycobacterial activity against tdTomato fluorescent Mycobacterium marinum infected in zebrafish assessed as reduction in bacterial burden at 25 uM pre-infected with bacteria for 4 to 5 days followed by compound addition and measured after day 6 post infection by microscopic analysis relative to control; assay type: functional; parameters: scale not given: the % may be the effect or the level left; settings: time 4-5 day
[36] = system: Mycobacterium tuberculosis; test: Antimycobacterial activity against Mycobacterium tuberculosis H37Rv infected in human THP-1 cells assessed as log reduction in bacterial growth at 10 uM incubated for 3 to 4 weeks by intracellular killing assay; assay type: functional; settings: time 3-4 weeks

Row | Structure (SMILES) | MIC [1] [µM] | MIC [4] [µM] | MIC [7] [µM] | MIC [9] [µM] | MIC [10] [µM] | MIC [11] [µM] | MIC [12] [µM] | MIC [13] [µM] | MIC [14] [µM] | MIC [15] [µM] | MIC [17] [µM] | MIC [18] [µM] | MIC [20] [µM] | MIC [22] [µM] | MIC [23] [µM] | Activity [26] [%] | MIC [27] [µM] | MIC [29] [µM] | MIC [30] [µM] | MIC [31] [µM] | further results
1 | CN[C@H](C(=O)N[C@H](C(=O)N[C@@H]1C(=O)N(C)[C@@H]([C@@H](C)O)C(=O)N[C@@H](C(C)C)C(=O)N(C)[C@@H](CC(C)C)C(=O)N[C@@H](C(C)C)C(=O)N(C)[C@@H](C)C(=O)N(C)[C@@H](Cc2c[nH]c3ccccc23)C(=O)N[C@@H](C(C)C)C(=O)N[C@@H](Cc2ccccc2)C(=O)N[C@@H](C(C)C)C(=O)O[C@@H]1C)C(C)C)C(C)C (H-[NMeV]VT[NMeT]V[NMeL]V[NMeA][NMeW]VFV; ester 3-C) | > 128 | > 128 | > 128 | > 128 | > 128 | > 128 | > 128 | > 128 | 128 (≈ 177 µg/mL) | > 128 | > 128 | 0.5 (≈ 0.692 µg/mL) | > 128 | > 128 | > 128 | 50 | 128 (≈ 177 µg/mL) | > 128 | > 128 | > 128 | MIC50 [2]: 1.44 µM (≈ 1.99 µg/mL); FIC [3]: 0.75; FIC [5]: 3; Activity [6]: Active; Activity [8]: 83%; FIC [16]: 0.375; Activity [19]: Active; fold change (FC) [21]: 3; FIC [24]: 2; FIC [25]: 2; Activity [28]: Active; Activity [32]: 6 log10CFU/ml; FIC [33]: 2; MIC [34]: > 128 µM; Activity [35]: 76%
2 | CN[C@H](C(=O)N[C@H](C(=O)N[C@@H]1C(=O)N(C)[C@@H]([C@@H](C)O)C(=O)N[C@@H](C(C)C)C(=O)N(C)[C@@H](CC(C)C)C(=O)N[C@@H](C(C)C)C(=O)N(C)[C@@H](Cc2ccccc2)C(=O)N(C)[C@@H](Cc2c[nH]c3ccccc23)C(=O)N[C@@H](C(C)C)C(=O)N[C@@H](Cc2ccccc2)C(=O)N[C@@H](C(C)C)C(=O)O[C@@H]1C)C(C)C)C(C)C (H-[NMeV]VT[NMeT]V[NMeL]V[NMeF][NMeW]VFV; ester 3-C) |  |  |  |  |  |  |  |  |  |  |  | 0.125 (≈ 0.183 µg/mL) |  |  |  |  |  |  |  |  | inhibition [28]: Active
3 | CC[C@@H](C)[C@@H](C(=O)N[C@@H]1C(=O)N(C)[C@@H]([C@@H](C)O)C(=O)N[C@@H](C(C)C)C(=O)N(C)[C@@H](CC(C)C)C(=O)N[C@@H](C(C)C)C(=O)N(C)[C@@H](C(C)C)C(=O)N(C)[C@@H](Cc2c[nH]c3cccc(OC)c23)C(=O)N[C@@H](C(C)C)C(=O)N[C@@H]([C@H](O)c2ccccc2)C(=O)N[C@@H](C(C)C)C(=O)O[C@@H]1C)N(C)C(=O)[C@@H](NC(=O)[C@H](C(C)C)N(C)C)C(C)C (NMe2Val-V[NMeaIle]T[NMeT]V[NMeL]V[NMeV][NMeTrp(4-OMe)]V[Phe(3R-OH)]V; ester 3-C) |  |  |  |  |  |  |  |  |  |  |  | 1 (≈ 1.6 µg/mL) |  |  |  |  |  |  |  |  | Activity [36]: 1 log10CFU/ml
4 | CO[C@H]1/C=C/O[C@@]2(C)Oc3c(C)c(O)c4c(O)c(c(/C=N/N5CCN(C)CC5)c(O)c4c3C2=O)NC(=O)/C(C)=C\C=C\[C@H](C)[C@H](O)[C@@H](C)[C@@H](O)[C@@H](C)[C@H](OC(C)=O)[C@@H]1C [RIFAMPIN] | 16 (≈ 13.2 µg/mL) | 21 (≈ 17.3 µg/mL) | 53 (≈ 43.6 µg/mL) | 8 (≈ 6.58 µg/mL) | 128 (≈ 105 µg/mL) | 2 (≈ 1.65 µg/mL) | 4 (≈ 3.29 µg/mL) | 1 (≈ 0.823 µg/mL) | 8 (≈ 6.58 µg/mL) | 0.11 (≈ 0.0905 µg/mL) | 0.02 (≈ 0.0165 µg/mL) |  | 1 (≈ 0.823 µg/mL) | 0.19 (≈ 0.156 µg/mL) | 4 (≈ 3.29 µg/mL) | 27 | 4 (≈ 3.29 µg/mL) | 1.7 (≈ 1.4 µg/mL) | 0.01 (≈ 0.00823 µg/mL) | 0.02 (≈ 0.0165 µg/mL) | Activity [36]: 1 log10CFU/ml; MIC [34]: 11 µM (≈ 9.05 µg/mL)

From ChEMBL document CHEMBL5046300, “Potent Bactericidal Antimycobacterials Targeting the Chaperone ClpC1 Based on the Depsipeptide Natural Products Ecumicin and Ohmyungsamycin A” (2022)
